The NIST ThermoML archive (doi:10.1016/j.jct.2018.04.005)
± gives the expanded uncertainty stated by the source.

Experiments:
[1] = 100 kPa, Liquid, Vibrating tube method
[2] = xn = mol fraction of the nth substance listed; details: 100 kPa, Liquid, Vibrating tube method

CCCC[n+]1ccn(C)c1.O=S(=O)([N-]S(=O)(=O)C(F)(F)F)C(F)(F)F
mass density ([1]; 293.15 K): 1442.3 ± 4 kg/m3 | mass density ([1]; 298.15 K): 1435.96 ± 4 kg/m3 | mass density ([1]; 303.15 K): 1431.96 ± 4 kg/m3 | mass density ([1]; 308.15 K): 1427.23 ± 4 kg/m3 | mass density ([1]; 313.15 K): 1422.19 ± 4 kg/m3 | mass density ([1]; 318.15 K): 1417.89 ± 4 kg/m3 | mass density ([1]; 323.15 K): 1412.96 ± 4 kg/m3

CCCCn1cc[n+](C)c1.F[P-](F)(F)(F)(F)F [1-butyl-3-methylimidazolium hexafluorophosphate]
mass density ([1]; 293.15 K): 1370.73 ± 4 kg/m3 | mass density ([1]; 298.15 K): 1366.5 ± 4 kg/m3 | mass density ([1]; 303.15 K): 1361.63 ± 4 kg/m3 | mass density ([1]; 308.15 K): 1359.45 ± 4 kg/m3 | mass density ([1]; 313.15 K): 1355.23 ± 4 kg/m3 | mass density ([1]; 318.15 K): 1351.63 ± 4 kg/m3 | mass density ([1]; 323.15 K): 1347.23 ± 4 kg/m3

CCCCn1cc[n+](C)c1.F[P-](F)(F)(F)(F)F [1-butyl-3-methylimidazolium hexafluorophosphate] + COC(=O)OC
mass density ([2]; 293.15 K, x1 = 0.034): 1099.2 ± 16 kg/m3 | mass density ([2]; 293.15 K, x1 = 0.0734): 1128.63 ± 15 kg/m3 | mass density ([2]; 293.15 K, x1 = 0.1196): 1159.82 ± 13 kg/m3 | mass density ([2]; 293.15 K, x1 = 0.1744): 1189.04 ± 11 kg/m3 | mass density ([2]; 293.15 K, x1 = 0.2407): 1220.08 ± 9.1 kg/m3 | mass density ([2]; 293.15 K, x1 = 0.3222): 1249.42 ± 7.5 kg/m3 | mass density ([2]; 293.15 K, x1 = 0.4251): 1278.97 ± 6.4 kg/m3 | mass density ([2]; 293.15 K, x1 = 0.559): 1308.93 ± 5.6 kg/m3 | mass density ([2]; 293.15 K, x1 = 0.7404): 1339.9 ± 4.9 kg/m3 | mass density ([2]; 293.15 K, x1 = 1): 1370.73 ± 4 kg/m3 | mass density ([2]; 298.15 K, x1 = 0.034): 1092.76 ± 17 kg/m3 | mass density ([2]; 298.15 K, x1 = 0.0734): 1122.91 ± 15 kg/m3 | mass density ([2]; 298.15 K, x1 = 0.1196): 1154.74 ± 13 kg/m3 | mass density ([2]; 298.15 K, x1 = 0.1744): 1183.63 ± 11 kg/m3 | mass density ([2]; 298.15 K, x1 = 0.2407): 1214.03 ± 9.1 kg/m3 | mass density ([2]; 298.15 K, x1 = 0.3222): 1244.28 ± 7.6 kg/m3 | mass density ([2]; 298.15 K, x1 = 0.4251): 1274.43 ± 6.4 kg/m3 | mass density ([2]; 298.15 K, x1 = 0.559): 1303.88 ± 5.5 kg/m3 | mass density ([2]; 298.15 K, x1 = 0.7404): 1335.38 ± 4.9 kg/m3 | mass density ([2]; 298.15 K, x1 = 1): 1366.5 ± 4 kg/m3 | mass density ([2]; 303.15 K, x1 = 0.034): 1086.29 ± 17 kg/m3 | mass density ([2]; 303.15 K, x1 = 0.0734): 1116.15 ± 15 kg/m3 | mass density ([2]; 303.15 K, x1 = 0.1196): 1148.32 ± 13 kg/m3 | mass density ([2]; 303.15 K, x1 = 0.1744): 1177.52 ± 11 kg/m3 | mass density ([2]; 303.15 K, x1 = 0.2407): 1208.51 ± 9.2 kg/m3 | mass density ([2]; 303.15 K, x1 = 0.3222): 1238.99 ± 7.7 kg/m3 | mass density ([2]; 303.15 K, x1 = 0.4251): 1269.31 ± 6.4 kg/m3 | mass density ([2]; 303.15 K, x1 = 0.559): 1298.92 ± 5.5 kg/m3 | mass density ([2]; 303.15 K, x1 = 0.7404): 1330.3 ± 4.9 kg/m3 | mass density ([2]; 303.15 K, x1 = 1): 1361.63 ± 4 kg/m3 | mass density ([2]; 308.15 K, x1 = 0.034): 1080.03 ± 17 kg/m3 | mass density ([2]; 308.15 K, x1 = 0.0734): 1110.74 ± 15 kg/m3 | mass density ([2]; 308.15 K, x1 = 0.1196): 1142.49 ± 13 kg/m3 | mass density ([2]; 308.15 K, x1 = 0.1744): 1173.19 ± 11 kg/m3 | mass density ([2]; 308.15 K, x1 = 0.2407): 1203.38 ± 9.2 kg/m3 | mass density ([2]; 308.15 K, x1 = 0.3222): 1234.34 ± 7.8 kg/m3 | mass density ([2]; 308.15 K, x1 = 0.4251): 1265.31 ± 6.5 kg/m3 | mass density ([2]; 308.15 K, x1 = 0.559): 1295.41 ± 5.6 kg/m3 | mass density ([2]; 308.15 K, x1 = 0.7404): 1327.51 ± 4.9 kg/m3 | mass density ([2]; 308.15 K, x1 = 1): 1359.45 ± 4 kg/m3 | mass density ([2]; 313.15 K, x1 = 0.034): 1073.79 ± 17 kg/m3 | mass density ([2]; 313.15 K, x1 = 0.0734): 1104.95 ± 15 kg/m3 | mass density ([2]; 313.15 K, x1 = 0.1196): 1136.01 ± 13 kg/m3 | mass density ([2]; 313.15 K, x1 = 0.1744): 1167.14 ± 11 kg/m3 | mass density ([2]; 313.15 K, x1 = 0.2407): 1197.82 ± 9.2 kg/m3 | mass density ([2]; 313.15 K, x1 = 0.3222): 1229.08 ± 7.8 kg/m3 | mass density ([2]; 313.15 K, x1 = 0.4251): 1260.15 ± 6.5 kg/m3 | mass density ([2]; 313.15 K, x1 = 0.559): 1290.91 ± 5.6 kg/m3 | mass density ([2]; 313.15 K, x1 = 0.7404): 1322.98 ± 4.9 kg/m3 | mass density ([2]; 313.15 K, x1 = 1): 1355.23 ± 4 kg/m3 | mass density ([2]; 318.15 K, x1 = 0.034): 1067.23 ± 17 kg/m3 | mass density ([2]; 318.15 K, x1 = 0.0734): 1098.5 ± 15 kg/m3 | mass density ([2]; 318.15 K, x1 = 0.1196): 1130.22 ± 13 kg/m3 | mass density ([2]; 318.15 K, x1 = 0.1744): 1161.77 ± 11 kg/m3 | mass density ([2]; 318.15 K, x1 = 0.2407): 1192.91 ± 9.3 kg/m3 | mass density ([2]; 318.15 K, x1 = 0.3222): 1224.39 ± 7.8 kg/m3 | mass density ([2]; 318.15 K, x1 = 0.4251): 1255.4 ± 6.6 kg/m3 | mass density ([2]; 318.15 K, x1 = 0.559): 1286.76 ± 5.7 kg/m3 | mass density ([2]; 318.15 K, x1 = 0.7404): 1318.91 ± 5 kg/m3 | mass density ([2]; 318.15 K, x1 = 1): 1351.63 ± 4 kg/m3 | mass density ([2]; 323.15 K, x1 = 0.034): 1060.39 ± 17 kg/m3 | mass density ([2]; 323.15 K, x1 = 0.0734): 1092.27 ± 16 kg/m3 | mass density ([2]; 323.15 K, x1 = 0.1196): 1125.56 ± 13 kg/m3 | mass density ([2]; 323.15 K, x1 = 0.1744): 1156.96 ± 11 kg/m3 | mass density ([2]; 323.15 K, x1 = 0.2407): 1187.95 ± 9.3 kg/m3 | mass density ([2]; 323.15 K, x1 = 0.3222): 1219.55 ± 7.9 kg/m3 | mass density ([2]; 323.15 K, x1 = 0.4251): 1250.82 ± 6.6 kg/m3 | mass density ([2]; 323.15 K, x1 = 0.559): 1282.14 ± 5.7 kg/m3 | mass density ([2]; 323.15 K, x1 = 0.7404): 1314.13 ± 5 kg/m3 | mass density ([2]; 323.15 K, x1 = 1): 1347.23 ± 4 kg/m3

CCCCn1cc[n+](C)c1.F[B-](F)(F)F [1-butyl-3-methylimidazolium tetrafluoroborate]
mass density ([1]; 293.15 K): 1202.47 ± 4 kg/m3 | mass density ([1]; 298.15 K): 1200.1 ± 4 kg/m3 | mass density ([1]; 303.15 K): 1195.48 ± 4 kg/m3 | mass density ([1]; 308.15 K): 1191.65 ± 4 kg/m3 | mass density ([1]; 313.15 K): 1187.83 ± 4 kg/m3 | mass density ([1]; 318.15 K): 1184.13 ± 4 kg/m3 | mass density ([1]; 323.15 K): 1180.33 ± 4 kg/m3

COC(=O)OC [dimethyl carbonate]
mass density ([1]; 293.15 K): 1069.83 ± 4 kg/m3 | mass density ([1]; 298.15 K): 1063.25 ± 4 kg/m3 | mass density ([1]; 303.15 K): 1056.63 ± 4 kg/m3 | mass density ([1]; 308.15 K): 1050.08 ± 4 kg/m3 | mass density ([1]; 313.15 K): 1043.44 ± 4 kg/m3 | mass density ([1]; 318.15 K): 1036.62 ± 4 kg/m3 | mass density ([1]; 323.15 K): 1029.88 ± 4 kg/m3

COC(=O)OC [dimethyl carbonate] + CCCCn1cc[n+](C)c1.F[P-](F)(F)(F)(F)F
mass density ([2]; 293.15 K, x2 = 0): 1069.83 ± 4 kg/m3 | mass density ([2]; 298.15 K, x2 = 0): 1063.25 ± 4 kg/m3 | mass density ([2]; 303.15 K, x2 = 0): 1056.63 ± 4 kg/m3 | mass density ([2]; 308.15 K, x2 = 0): 1050.08 ± 4 kg/m3 | mass density ([2]; 313.15 K, x2 = 0): 1043.44 ± 4 kg/m3 | mass density ([2]; 318.15 K, x2 = 0): 1036.62 ± 4 kg/m3 | mass density ([2]; 323.15 K, x2 = 0): 1029.88 ± 4 kg/m3
